Experimental data published in EP0431659B1, “Pharmaceutical compositions of tebufelone” (THE PROCTER & GAMBLE COMPANY, priority 1989, dated 1991).

Columns and labels:
[1] = absorption from the gastrointestinal tract after peroral dosing; type: in vivo; conditions: dosed in conventional solid dosage forms, such as tablets or powders in capsules
[2] = water solubility of tebufelone; type: physicochemical; conditions: water (essentially water-insoluble)

With `C#CCCCC(=O)c1cc(C(C)(C)C)c(O)c(C(C)(C)C)c1` [tebufelone, 1-[3,5-bis(1,1-dimethylethyl)-4-hydroxyphenyl]-5-hexyn-1-one] as the compound, how does the “absorption of tebufelone from the gastrointestinal tract” value [1] read?
Its value is “quite low”.

And the solubility [2]?
The solubility was < 1 µg/mL.
